Laboratory results as given in the NIST ThermoML archive (doi:10.1016/j.jct.2015.04.005).
Numbers after ± are expanded uncertainties.

Key:
[1] = 102.24 kPa, Liquid, Frequency=5 MHz, Single path-length method
[2] = xn = mol fraction of the nth substance listed; settings: 102.24 kPa, Liquid, x2 = 0; for speed of sound: Frequency=5 MHz, Single path-length method; for mass density: Vibrating tube method

Compound | speed of sound ([1]; 293.15 K) [m/s] | speed of sound ([1]; 298.15 K) [m/s] | speed of sound ([1]; 303.15 K) [m/s] | speed of sound ([1]; 308.15 K) [m/s] | speed of sound ([1]; 313.15 K) [m/s] | speed of sound ([1]; 318.15 K) [m/s] | speed of sound ([1]; 323.15 K) [m/s] | speed of sound ([1]; 328.15 K) [m/s] | speed of sound ([1]; 333.15 K) [m/s] | speed of sound ([1]; 338.15 K) [m/s] | speed of sound ([1]; 343.15 K) [m/s] | speed of sound ([2]; 313.15 K) [m/s] | mass density ([2]; 323.15 K) [kg/m3] | speed of sound ([2]; 328.15 K) [m/s] | mass density ([2]; 328.15 K) [kg/m3] | speed of sound ([2]; 333.15 K) [m/s] | mass density ([2]; 333.15 K) [kg/m3]
CCC(=O)[O-].C[NH2+]CCO [2-hydroxy-N-methylethanaminium propionate] | 1656.9 ± 8.1 | 1638.4 ± 8.1 | 1624.6 ± 8.1 | 1607 ± 8.1 | 1588.5 ± 8.1 | 1573.2 ± 8.1 | 1558.3 ± 8.1 | 1543.7 ± 8.1 | 1527 ± 8.1 | 1507.1 ± 8.1 | 1492.6 ± 8.1 | – | – | – | – | – | –
O [water] + CCC(=O)[O-].C[NH2+]CCO | – | – | – | – | – | – | – | – | – | – | – | 1528.9 ± 8 | 988 ± 1.7 | 1547.4 ± 8 | 985.7 ± 1.7 | 1551 ± 8 | 983.2 ± 1.7
